From the supplement of paper PMC8671470

system: ML-2; test: cell viability (% survival relative to DMSO control, bortezomib = 0%); higher = less cytotoxic; conditions: 10000 nM; 72 h
How it was run: (§1)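 Fifteen myeloid leukaemia cell lines were exposed to compounds at 1, 10, 100, 1000 or 10000 nM in 384-well plates for 72 h at 37 °C and 5% CO2. Viability was read by CellTiter-Glo luminescence and normalised, with vehicle as 100% and a 10 µM positive control as 0%. Values are percent survival averaged over duplicates.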

| SMILES | cell viability |
| --- | --- |
| O=NN(CCCl)C(=O)NCCCl [Carmustine] | 106% |
| O[C@H]1[C@H](O)[C@@H](O)CN2CC[C@H](O)[C@H]12 [Castanospermine] | 94.1% |
| O=C(/C=C/c1cccnc1)NCCCCC1CCN(C(=O)c2ccccc2)CC1 [Daporinad] | -0.274% |
| N=C(N)c1ccc(N=NNc2ccc(C(=N)N)cc2)cc1 [Diminazene] | 93.7% |
| OCCN(CCO)c1nc(N2CCCCC2)c2nc(N(CCO)CCO)nc(N3CCCCC3)c2n1 [Dipyridamole] | 66.4% |
| Cc1cc(O)c2c(c1)C(=O)c1cc(O)cc(O)c1C2=O [Emodin] | 98.2% |
| N#Cc1ccc(C2CCCc3cncn32)cc1 (stereo not given) [Fadrozole] | 109% |
| Cc1nc(-c2ccc(OCC(C)C)c(C#N)c2)sc1C(=O)O [Febuxostat] | 86.8% |

system: SHI-1; test: as above; conditions: 1 nM; 72 h
How it was run: as §1

| SMILES | cell viability |
| --- | --- |
| CN(C)CCNC(=O)c1cccn2c(=O)c3cc4ccccc4cc3nc12 [Bmh-21] | 108% |
| C=C1C(=O)O[C@H](CCCCCCCC)[C@H]1C(=O)O [C75] | 105% |
| O=C(Cc1cccc(OC(F)(F)F)c1)Nc1ccc(CCCCc2nnc(NC(=O)Cc3ccccn3)s2)nn1 [CB-839] | 109% |
| O=NN(CCCl)C(=O)NCCCl [Carmustine] | 87% |
| O[C@H]1[C@H](O)[C@@H](O)CN2CC[C@H](O)[C@H]12 [Castanospermine] | 106% |
| O=C(/C=C/c1cccnc1)NCCCCC1CCN(C(=O)c2ccccc2)CC1 [Daporinad] | 86.7% |
| N=C(N)c1ccc(N=NNc2ccc(C(=N)N)cc2)cc1 [Diminazene] | 100% |
| OCCN(CCO)c1nc(N2CCCCC2)c2nc(N(CCO)CCO)nc(N3CCCCC3)c2n1 [Dipyridamole] | 104% |
| Cc1cc(O)c2c(c1)C(=O)c1cc(O)cc(O)c1C2=O [Emodin] | 88.6% |
| N#Cc1ccc(C2CCCc3cncn32)cc1 (stereo not given) [Fadrozole] | 113% |
| Cc1nc(-c2ccc(OCC(C)C)c(C#N)c2)sc1C(=O)O [Febuxostat] | 87% |

same assay, conditions: 10 nM; 72 h

| SMILES | cell viability |
| --- | --- |
| CN(C)CCNC(=O)c1cccn2c(=O)c3cc4ccccc4cc3nc12 [Bmh-21] | 102% |
| C=C1C(=O)O[C@H](CCCCCCCC)[C@H]1C(=O)O [C75] | 98.5% |
| O=C(Cc1cccc(OC(F)(F)F)c1)Nc1ccc(CCCCc2nnc(NC(=O)Cc3ccccn3)s2)nn1 [CB-839] | 103% |
| O=NN(CCCl)C(=O)NCCCl [Carmustine] | 109% |
| O[C@H]1[C@H](O)[C@@H](O)CN2CC[C@H](O)[C@H]12 [Castanospermine] | 98% |
| O=C(/C=C/c1cccnc1)NCCCCC1CCN(C(=O)c2ccccc2)CC1 [Daporinad] | 107% |
| N=C(N)c1ccc(N=NNc2ccc(C(=N)N)cc2)cc1 [Diminazene] | 102% |
| OCCN(CCO)c1nc(N2CCCCC2)c2nc(N(CCO)CCO)nc(N3CCCCC3)c2n1 [Dipyridamole] | 113% |
| Cc1cc(O)c2c(c1)C(=O)c1cc(O)cc(O)c1C2=O [Emodin] | 97.8% |
| N#Cc1ccc(C2CCCc3cncn32)cc1 (stereo not given) [Fadrozole] | 95.3% |
| Cc1nc(-c2ccc(OCC(C)C)c(C#N)c2)sc1C(=O)O [Febuxostat] | 97.7% |

same assay, conditions: 100 nM; 72 h

| SMILES | cell viability |
| --- | --- |
| CN(C)CCNC(=O)c1cccn2c(=O)c3cc4ccccc4cc3nc12 [Bmh-21] | 81.7% |
| C=C1C(=O)O[C@H](CCCCCCCC)[C@H]1C(=O)O [C75] | 108% |
| O=C(Cc1cccc(OC(F)(F)F)c1)Nc1ccc(CCCCc2nnc(NC(=O)Cc3ccccn3)s2)nn1 [CB-839] | 99.7% |
| O=NN(CCCl)C(=O)NCCCl [Carmustine] | 97.6% |
| O[C@H]1[C@H](O)[C@@H](O)CN2CC[C@H](O)[C@H]12 [Castanospermine] | 108% |
| O=C(/C=C/c1cccnc1)NCCCCC1CCN(C(=O)c2ccccc2)CC1 [Daporinad] | 83% |
| N=C(N)c1ccc(N=NNc2ccc(C(=N)N)cc2)cc1 [Diminazene] | 116% |
| OCCN(CCO)c1nc(N2CCCCC2)c2nc(N(CCO)CCO)nc(N3CCCCC3)c2n1 [Dipyridamole] | 110% |
| Cc1cc(O)c2c(c1)C(=O)c1cc(O)cc(O)c1C2=O [Emodin] | 98.3% |
| N#Cc1ccc(C2CCCc3cncn32)cc1 (stereo not given) [Fadrozole] | 101% |
| Cc1nc(-c2ccc(OCC(C)C)c(C#N)c2)sc1C(=O)O [Febuxostat] | 99% |

same assay, conditions: 1000 nM; 72 h

| SMILES | cell viability |
| --- | --- |
| CN(C)CCNC(=O)c1cccn2c(=O)c3cc4ccccc4cc3nc12 [Bmh-21] | 94% |
| C=C1C(=O)O[C@H](CCCCCCCC)[C@H]1C(=O)O [C75] | 100% |
| O=C(Cc1cccc(OC(F)(F)F)c1)Nc1ccc(CCCCc2nnc(NC(=O)Cc3ccccn3)s2)nn1 [CB-839] | 74.9% |
| O=NN(CCCl)C(=O)NCCCl [Carmustine] | 128% |
| O[C@H]1[C@H](O)[C@@H](O)CN2CC[C@H](O)[C@H]12 [Castanospermine] | 125% |
| O=C(/C=C/c1cccnc1)NCCCCC1CCN(C(=O)c2ccccc2)CC1 [Daporinad] | 68.9% |
| N=C(N)c1ccc(N=NNc2ccc(C(=N)N)cc2)cc1 [Diminazene] | 95.3% |
| OCCN(CCO)c1nc(N2CCCCC2)c2nc(N(CCO)CCO)nc(N3CCCCC3)c2n1 [Dipyridamole] | 92.2% |
| Cc1cc(O)c2c(c1)C(=O)c1cc(O)cc(O)c1C2=O [Emodin] | 94.5% |
| N#Cc1ccc(C2CCCc3cncn32)cc1 (stereo not given) [Fadrozole] | 95.8% |
| Cc1nc(-c2ccc(OCC(C)C)c(C#N)c2)sc1C(=O)O [Febuxostat] | 99.4% |

same assay, conditions: 10000 nM; 72 h

| SMILES | cell viability |
| --- | --- |
| CN(C)CCNC(=O)c1cccn2c(=O)c3cc4ccccc4cc3nc12 [Bmh-21] | 53.7% |
| C=C1C(=O)O[C@H](CCCCCCCC)[C@H]1C(=O)O [C75] | 100% |
| O=C(Cc1cccc(OC(F)(F)F)c1)Nc1ccc(CCCCc2nnc(NC(=O)Cc3ccccn3)s2)nn1 [CB-839] | 68.4% |
| O=NN(CCCl)C(=O)NCCCl [Carmustine] | 104% |
| O[C@H]1[C@H](O)[C@@H](O)CN2CC[C@H](O)[C@H]12 [Castanospermine] | 112% |
| O=C(/C=C/c1cccnc1)NCCCCC1CCN(C(=O)c2ccccc2)CC1 [Daporinad] | 75.5% |
| N=C(N)c1ccc(N=NNc2ccc(C(=N)N)cc2)cc1 [Diminazene] | 95.8% |
| OCCN(CCO)c1nc(N2CCCCC2)c2nc(N(CCO)CCO)nc(N3CCCCC3)c2n1 [Dipyridamole] | 80.9% |
| Cc1cc(O)c2c(c1)C(=O)c1cc(O)cc(O)c1C2=O [Emodin] | 93.5% |
| N#Cc1ccc(C2CCCc3cncn32)cc1 (stereo not given) [Fadrozole] | 102% |
| Cc1nc(-c2ccc(OCC(C)C)c(C#N)c2)sc1C(=O)O [Febuxostat] | 93.8% |

system: MOLM-13; test: as above; conditions: 1 nM; 72 h
How it was run: as §1

| SMILES | cell viability |
| --- | --- |
| CN(C)CCNC(=O)c1cccn2c(=O)c3cc4ccccc4cc3nc12 [Bmh-21] | 123% |
| C=C1C(=O)O[C@H](CCCCCCCC)[C@H]1C(=O)O [C75] | 102% |
